The term IC50 denotes the midpoint of a concentration-inhibition curve.

These results are taken from patent US11447479B2, “Compounds active towards nuclear receptors” (NUEVOLUTION A/S, priority 2019, dated 2022).

For the first assay, the system named is Th17 cells. As to the kind of experiment: Th17 assay (IL-17 in supernatants of differentiating human naive CD4+ T cells, ELISA). The format is cell-based. Conditions: 168 h, Th17 differentiation for seven days with test compound, IL-17 levels in supernatants by ELISA. How it is done:
Th17 Assay (Another Suitable Assay)
The following modifications were made to the manufacturer's protocol: 1) Incubation with Biotin-Antibody Cocktail and Anti-Biotin MicroBeads was prolonged to 30 minutes, and 2) Cells were washed with 40 mL of Miltenyi buffer. Differentiation of Th17 cells in anti-CD3 (BD Pharmingen, 5 μg/ml) coated 96-well plates (400,000 cells/well, 160 μl RPMI1640+10% Fetal Bovine Serum) containing 5 μg/ml anti-CD28 (BD Pharmingen), 10 ng/ml IL-2 (R&D Systems), 2.5 ng/ml TGFβ-1 (R&D Systems), 20 ng/ml IL-1β (R&D Systems), 20 ng/ml IL-6 (R&D Systems), 30 ng/ml IL-23 (R&D Systems), 2.5 μg/ml anti-IL-4 (R&D Systems) and 1 μg/ml anti-IFNγ (R&D Systems) and with test compound during the entire differentiation (or vehicle, 0.1% DMSO for control). Test compounds were tested in triplicates, diluted 1000-fold in medium (final DMSO concentration is 0.1%). Incubated for seven days at 37° C., 5% CO2, 95% humidity, and 2-fluoro-4′-[[4-(4-pyridinylmethyl)-1-piperazinyl]methyl]-α,α-bis(trifluoromethyl)-[1,1′-biphenyl]-4-methanol (SR2211 Calbiochem, Cat. No. 557353) was used as positive control. As negative control, cells were differentiated into Th0 using 5 μg/ml anti-CD28 (BD Pharmingen), 10 ng/ml IL-2 (R&D Systems), 2 μg/ml anti-IL4 (R&D Systems) and 2 μg/ml anti-IFNγ (R&D Systems) are negative control. IL-17 levels in supernatants were measured with ELISA (R&D Systems).
(In general: ELISA stands for enzyme-linked immunosorbent assay.)
Regarding `NC(=O)CN1CCC(CNc2ncnc(N3CCOC[C@@H]3c3ccc(C(F)(F)F)cc3)c2F)CC1` [Example H6-5, (S)-2-(4-(((5-fluoro-6-(3-(4-(trifluoromethyl)phenyl)morpholino)pyrimidin-4-yl)amino)methyl)piperidin-1-yl)acetamide], half-maximal inhibition (IC50) was put at 161 nM.

In another assay the target is T1, RORγ (Homo sapiens, UniProt P51449).
T1 construct: Gal4 (galactose-responsive transcription factor); expressed in transfected cells; host or cells: HEK293
T1 sequence (P51449 269-508 limits assumed): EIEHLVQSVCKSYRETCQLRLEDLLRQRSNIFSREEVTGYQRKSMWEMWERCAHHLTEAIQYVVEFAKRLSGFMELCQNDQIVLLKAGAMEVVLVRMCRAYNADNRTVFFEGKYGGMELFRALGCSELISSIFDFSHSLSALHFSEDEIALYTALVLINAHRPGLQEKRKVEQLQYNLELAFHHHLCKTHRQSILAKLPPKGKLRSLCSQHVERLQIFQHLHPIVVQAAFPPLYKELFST
As to the kind of experiment: RORγ Reporter Assay (Gal4). Conditions: HEK293 co-transfected with RORγ LBD-Gal4 and luciferase reporter, 24 h incubation, absolute IC50; read-out: IC50. The format is cell-based. How it is done: RORγ Reporter Assay (Gal4)
The HEK293 cell line is co-transfected transiently with two plasmids, one with the RORγ ligand-binding domain fused to galactose-responsive transcription factor (Gal4), and the other with the luciferase reporter gene and Gal binding sites (UAS). This construction allows to determine the RORγ activity in a cellular system through the measurement of luminescence.
A suspension of RORγ reporter cells was dispensed into plates and cultured 2 h at 37° C. and 5% CO2. Media formulation consisted in DMEM/F-12 medium (Gibco) supplemented with 10% heat inactivated FBS (Sigma-Aldrich), non-essential aminoacids (Sigma-Aldrich), 2 mM Glutamax (Gibco) and 100 U/mF penicillin (Sigma-Aldrich). Dose-response curves with compounds were prepared in 100% DMSO and further diluted […] in culture medium. Compound solutions were added to the plate containing cells (final DMSO concentration of 0.1%) and incubated for 24 h at 37° C. and 5% CO2. Luciferase detection reagent was added to each well, and relative light units […] were quantified from each assay well using a plate reading luminometer.
Values of average RFU±S.D. were computed for all treatment sets, followed by the calculations of percent-reduction of RORγ activity in response to respective test compound. The following formula was used: activity=100*[1−[x test compound/average vehicle]where the theoretical minimum reduction (0% reduction).
(In general: A reporter such as luciferase makes a cellular process visible.)
For `NC(=O)CN1CC[C@H](CNc2ncnc(N3CCOC[C@@H]3c3ccc(C(F)(F)F)cn3)c2F)[C@@H](F)C1` (single isomer, unassigned) [Example H6-13-1, 2-((3R*,4R*)-3-fluoro-4-(((5-fluoro-6-((S)-3-(5-(trifluoromethyl)pyridin-2-yl)morpholino)pyrimidin-4-yl)amino)methyl)piperidin-1-yl)acetamide], the half-maximal inhibitory concentration (IC50) is 160 nM.
Still for that read-out and setting: in the case of `NC(=O)CN1CC[C@H](CNc2ncnc(N3CCOC[C@@H]3c3ccc(C(F)(F)F)cc3)c2F)[C@@H](F)C1` (single isomer, unassigned) [Example H6-10-2, 2-((3R*,4R*)-3-fluoro-4-(((5-fluoro-6-((S)-3-(4-(trifluoromethyl)phenyl)morpholino)pyrimidin-4-yl)amino)methyl)piperidin-1-yl)acetamide] it was 13 nM; in that of `NC(=O)CN1CCC(CNc2ncnc(N3CCCC3c3ccc(C(F)(F)F)cc3)c2F)CC1` (centres unmarked) [Example H6-25, 2-(4-(((5-fluoro-6-(2-(4-(trifluoromethyl)phenyl)pyrrolidin-1-yl)pyrimidin-4-yl)amino)methyl)piperidin-1-yl)acetamide], 88 nM.
Still for that read-out and setting: in the case of `NC(=O)CN1CCC(CNc2ncnc(N3CCOC[C@@H]3c3ccc(C(F)(F)F)cc3)c2F)C(F)(F)C1` (single isomer, unassigned) [Example H6-9-1, 2-((R*)-3,3-difluoro-4-(((5-fluoro-6-((S)-3-(4-(trifluoromethyl)phenyl)morpholino)pyrimidin-4-yl)amino)methyl)piperidin-1-yl)acetamide] it was 100 nM; in that of `NC(=O)CN1CC[C@H](CNc2ncnc(N3CCOC[C@@H]3c3ccc(C(F)(F)F)cc3)c2F)[C@@H](O)C1` (single isomer, unassigned) [Example H6-7-1, 2-((3R*,4R*)-4-(((5-fluoro-6-((S)-3-(4-(trifluoromethyl)phenyl)morpholino)pyrimidin-4-yl)amino)methyl)-3-hydroxypiperidin-1-yl)acetamide], 20 nM; in that of `NC(=O)CN1CCC(CNc2ncnc(N3CCC3c3ccc(C(F)(F)F)cc3)c2F)CC1` (centres unmarked) [Example H6-28, 2-(4-(((5-fluoro-6-(2-(4-(trifluoromethyl)phenyl)azetidin-1-yl)pyrimidin-4-yl)amino)methyl)piperidin-1-yl)acetamide], 300 nM.
Still for that read-out and setting: in the case of `NC(=O)CN1CC[C@@H](CNc2ncnc(N3CCOC[C@@H]3c3ccc(C(F)(F)F)cc3)c2F)[C@H](O)C1` (single isomer, unassigned) [Example H6-7-2, 2-((3R*,4R*)-4-(((5-fluoro-6-((S)-3-(4-(trifluoromethyl)phenyl)morpholino)pyrimidin-4-yl)amino)methyl)-3-hydroxypiperidin-1-yl)acetamide] it was 35 nM; in that of `NC(=O)CN1CCC(CNc2ncnc(N3CC(F)(F)C[C@@H]3c3ccc(C(F)(F)F)cn3)c2F)C(F)(F)C1` (single isomer, unassigned) [Example H6-19-2, 2-((R*)-4-(((6-((R)-4,4-difluoro-2-(5-(trifluoromethyl)pyridin-2-yl)pyrrolidin-1-yl)-5-fluoropyrimidin-4-yl)amino)methyl)-3,3-difluoropiperidin-1-yl)acetamide], 46 nM.
As to `NC(=O)CN1CC[C@H](CNc2ncnc(N3CCOC[C@@H]3c3ccc(C(F)(F)F)cn3)c2F)[C@H](F)C1` (single isomer, unassigned) [Example H6-12-1, 2-((3R*,4S*)-3-fluoro-4-(((5-fluoro-6-((S)-3-(5-(trifluoromethyl)pyridin-2-yl)morpholino)pyrimidin-4-yl)amino)methyl)piperidin-1-yl)acetamide], the IC50 came to 550 nM.
Same read-out and setting: with `NC(=O)CN1CCC(CNc2ncnc(N3CC(F)(F)CC3c3ccc(C(F)(F)F)cc3)c2F)CC1` (centres unmarked) [Example H6-24, 2-(4-(((6-(4,4-difluoro-2-(4-(trifluoromethyl)phenyl)pyrrolidin-1-yl)-5-fluoropyrimidin-4-yl)amino)methyl)piperidin-1-yl)acetamide] the figure was 140 nM; with `NC(=O)CN1CC[C@H](CNc2ncnc(N3CC(F)(F)C[C@@H]3c3ccc(C(F)(F)F)cc3)c2F)[C@@H](O)C1` (single isomer, unassigned) [Example H6-17-2, 2-((3R*,4R*)-4-(((6-((R)-4,4-difluoro-2-(4-(trifluoromethyl)phenyl)pyrrolidin-1-yl)-5-fluoropyrimidin-4-yl)amino)methyl)-3-hydroxypiperidin-1-yl)acetamide], 31 nM.
Still for that read-out and setting: in the case of `NC(=O)CN1CC[C@H](CNc2ncnc(N3CCOC[C@@H]3c3ccc(C(F)(F)F)cn3)c2F)[C@H](F)C1` (single isomer, unassigned) [Example H6-12-2, 2-((3R*,4S*)-3-fluoro-4-(((5-fluoro-6-((S)-3-(5-(trifluoromethyl)pyridin-2-yl)morpholino)pyrimidin-4-yl)amino)methyl)piperidin-1-yl)acetamide] it was 910 nM.
Still for that read-out and setting: in the case of `NC(=O)CN1CCC(CNc2ncnc(N3CCOC[C@@H]3c3ccc(OC(F)(F)F)cc3)c2F)CC1` [Example H6-23, (S)-2-(4-(((5-fluoro-6-(3-(4-(trifluoromethoxy)phenyl)morpholino)pyrimidin-4-yl)amino)methyl)piperidin-1-yl)acetamide] it was 190 nM.
Consider `C[C@@H]1COC[C@H](c2cccc(C(F)(F)F)c2)N1c1ncnc(NC[C@@H]2CCN(CC(N)=O)C[C@H]2O)c1F` (single isomer, unassigned) [Example H6-21-4], for which the IC50 is 120 nM.
The same measure, in the same setting: in the case of `NC(=O)CN1CCC(CNc2ncnc(N3CCOC[C@@H]3c3ccc(C(F)(F)F)cc3)c2F)CC1` [Example H6-5, (S)-2-(4-(((5-fluoro-6-(3-(4-(trifluoromethyl)phenyl)morpholino)pyrimidin-4-yl)amino)methyl)piperidin-1-yl)acetamide] it was 70 nM.
The same measure, in the same setting: with `NC(=O)CN1CCC(CNc2ncnc(N3CCCC3c3ccc(C(F)(F)F)cc3O)c2F)CC1` (centres unmarked) [Example H6-26, 2-(4-(((5-fluoro-6-(2-(2-hydroxy-4-(trifluoromethyl)phenyl)pyrrolidin-1-yl)pyrimidin-4-yl)amino)methyl)piperidin-1-yl)acetamide] the figure was 440 nM; with `C[C@@H]1COC[C@H](c2ccc(C(F)(F)F)cc2)N1c1ncnc(NC[C@@H]2CCN(CC(N)=O)C[C@H]2O)c1F` (single isomer, unassigned) [Example H6-22-2], 60 nM.
Still for that read-out and setting: in the case of `NC(=O)CN1CC[C@H](CNc2ncnc(N3CC(F)(F)C[C@@H]3c3ccc(C(F)(F)F)cn3)c2F)[C@@H](F)C1` (single isomer, unassigned) [Example H6-18-2, 2-((3R*,4R*)-4-(((6-((R)-4,4-difluoro-2-(5-(trifluoromethyl)pyridin-2-yl)pyrrolidin-1-yl)-5-fluoropyrimidin-4-yl)amino)methyl)-3-fluoropiperidin-1-yl)acetamide] it was 60 nM.

Still in this assay, the particulars now being: comparison compounds from WO2016020295, Tables 5 and 6; read-out: Gal4 assay IC50.
In the case of `NC(=O)CC1CCC(CNc2ncnc(N3CCOC[C@@H]3c3ccc(OC(F)(F)F)cc3)c2F)CC1` (some centres unmarked) [Example 245, reference compound], the IC50 is < 500 nM.
